Results as given in patent US12582638B2, “Pharmaceutical composition for treating cancer, containing mTOR-signaling inhibitor as active ingredient” (KOREA ADVANCED INSTITUTE OF SCIENCE AND TECHNOLOGY, priority 2020, dated 2026).

Assays:
Assay in all cases: Cell viability, CellTiterGlo, 72 hours
Type in all cases: cell-based
[1] = tested on: SK-MEL-3; details: Homo sapiens, SK-MEL3, SK-MEL-3 cells, Skin
Summary of the method: (§1)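 Lomitapide, various concentrations; 37° C, 5% or 10% CO2. RT equilibration 1 h, CellTiterGlo added, luminescence after 1 h → % viability.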

[2] = tested on: SK-N-FI; details: Homo sapiens, SK-N-FI cells, Brain
Summary of the method: as §1

[3] = tested on: NCI-H1581; details: Homo sapiens, NCI-H1581 cells, Lung
Summary of the method: as §1

[4] = tested on: Caki-2; details: Homo sapiens, Caki-2 cells, Kidney
Summary of the method: as §1

[5] = tested on: MOLM-13; details: Homo sapiens, MOLM-13 cells, Blood
Summary of the method: as §1

[6] = tested on: HCC827; details: Homo sapiens, HCC827 cells, Lung
Summary of the method: as §1

[7] = tested on: MCAS; details: MCAS cells, Ovary
Summary of the method: as §1

[8] = tested on: KARPAS 299; details: Homo sapiens, KARPAS 299 cells, Blood
Summary of the method: as §1

[9] = tested on: NCI-H1703; details: Homo sapiens, NCI-H1703 cells, Lung
Summary of the method: as §1

[10] = tested on: SNU840; details: SNU-840, SNU840 cells, Ovary
Summary of the method: as §1

[11] = tested on: A172; details: Homo sapiens, A 172, A172 cells, Brain
Summary of the method: as §1

[12] = tested on: HT-1080; details: Homo sapiens, HT-1080 cells, Fibrosarcoma
Summary of the method: as §1

Question: For `O=C(NC1CCN(CCCCC2(C(=O)NCC(F)(F)F)c3ccccc3-c3ccccc32)CC1)c1ccccc1-c1ccc(C(F)(F)F)cc1` [lomitapide, N-(2,2,2-trifluoroethyl)-9-[4-[4-[[[4′-(trifluoromethyl)[1,1′-biphenyl]2-yl]carbonyl]amino]-1-piperidinyl]butyl]-9H-fluoren-9-carboxamide], which IC50 [1] is on record?
Answer: Its IC50 is 1.6 µM.

Question: What about the IC50 [2] of the same compound?
Answer: Its IC50 is 3.4 µM.

Question: And the IC50 [3]?
Answer: The IC50 was 3.7 µM.

Question: What about the IC50 [4] of the same compound?
Answer: The IC50 was 2.8 µM.

Question: What about the IC50 [5] of the same compound?
Answer: The IC50 was 6.3 µM.

Question: What about the IC50 [6] of the same compound?
Answer: Its IC50 is 4.1 µM.

Question: And the IC50 [7]?
Answer: The IC50 was 4.5 µM.

Question: What about the IC50 [8] of the same compound?
Answer: Its IC50 is 1.4 µM.

Question: What about the IC50 [9] of the same compound?
Answer: The IC50 was 5.7 µM.

Question: And the IC50 [10]?
Answer: Its IC50 is 2.3 µM.

Question: What about the IC50 [11] of the same compound?
Answer: Its IC50 is 1.9 µM.

Question: And the IC50 [12]?
Answer: The IC50 was 3.9 µM.
